# In patent publication US9018165B2, “Process for the synchronization of ovulation for timed breeding without heat detection” (priority 2003, dated 2015):
# What was measured:
# [1] = test system: mature postpartum sows; assay: Intravulvar injection at estrus detection with AI in mature postpartum sows (Example 2); format: in vivo, swine; settings: 50 mcg intravulvar at first estrus detection
# Method: Sows were assigned randomly in blocks of two to either control or to be injected intravulvar with 50 mcg of deslorelin in SAIB at the time of estrus detection for sows first detected in estrus in the a.m. and 12 hours later for those first detected in estrus in the p.m. Treated animals were bred AI upon detected estrus and again 24 hours later if still in estrus. Controls received a saline injection on first detected estrus behavior estrus detection and were bred according to the farm's normal procedures.
# [2] = test system: postpartum sows; assay: Timed injection 96 hours post-weaning and single timed insemination without estrus detection (Example 3); format: in vivo, swine; settings: 50 mcg in SAIB 96 hours post-weaning; single insemination 28+/-2 hours later
# Method: Approximately 170 postpartum sows were randomly divided into two equal groups comprised of controls and treated. Following weaning, the controls were detected for estrus and bred following the normal standard operating procedures for the farms on which they resided. The treated sows received a 50 mcg dose of deslorelin in SAIB at 96 hours post-weaning and were bred with a single insemination 28+/−2 hours later with no regard to estrus detection. The sows were examined for pregnancy by ultrasound at 21 days and slaughtered around 28 days post breeding. The entire reproductive tract was removed and corpora lutea and embryos were counted.
compound,measurement,setting,value
"CCNC(=O)[C@@H]1CCCN1C(=O)[C@H](CCCN=C(N)N)NC(=O)[C@H](CC(C)C)NC(=O)[C@@H](Cc1c[nH]c2ccccc12)NC(=O)[C@H](Cc1ccc(O)cc1)NC(=O)[C@H](CO)NC(=O)[C@H](Cc1c[nH]c2ccccc12)NC(=O)[C@H](Cc1cnc[nH]1)NC(=O)[C@@H]1CCC(=O)N1 [Deslorelin, deslorelin]","difference in pregnancy rates, Control versus Treated (in words)",[1],no significant difference
same,Embryo Survival,[2],64%
